Experiments:
[1] = system: P-gp expression in CEMrev cells; assay: Induction of P-gp expression in CEMrev cells (flow cytometry); format: cell-based, human; details: for % of P-gp expressing cells: CEMrev
Text: Similarly to some of the isozymes involved in drug metabolism, the expression of P-gp is inducible. It is therefore important to assess whether P-gp induction occurs upon exposure to IINs, with potential implications for drug metabolism. To this aim, we investigated whether the treatment with the IINs RDS 1974, RDS 1983, RDS 1984 and RDS 1996, all having different biological and physicochemical properties (Table 1), modulate P-gp expression in the human CD4+ CEM cell system. The parental drug sensitive CEM cell line and the revertant of its derivative CEM-VBL10 MDR cell variant (CEMrev), expressing very low or undetectable amount of P-gp, were cultured in the presence of the indicated IINs ([…]; 25 μg/ml for RDS 1983 and RDS 1984) for 28 days (RDS 1983, RDS 1984 and RDS 1996) or 104 days (RDS 1974). As a control for P-gp modulation, CEMrev cells were exposed to VBL, shown to increase P-gp expression.
The multidrug resistant (MDR) variants CEM-VBL10 and CEM-VBL100 cells were isolated by stepwise selection of the parental drug sensitive CCRF-CEM (CEM) in the presence of increasing concentrations of VBL [31, 32]. Cells were grown under standard conditions for mammalian cells cultured in suspension. The basic medium (BM) for cell culturing consisted of RPMI-1640 supplemented with 10% foetal calf serum (FCS), L-glutamine (2 mM) penicillin (100 U/mL) and streptomycin (100 U/mL). All these components were purchased from Hyclone (Logan, Utah). Identical BM, culture conditions and trypsin (Hyclone) were used for the adherent MDR variant KB.V1 of the human oral epidermoid carcinoma KB cells. To test the ability of selected IINs (RDS 1974, […], RDS 1984 and RDS 1996) to induce de novo expression of P-glycoprotein, the drug-sensitive CEMrev cell line was used; this cell line derives from the CEM-VBL10 MDR cell line, cultured for more than 2 years in VBL-free medium and expresses very low (1–3%) or undetectable amounts of P-gp.
(§1) The anti CD4-FITC mAb was purchased from Vinci Biochem, Firenze, Italy. The mAb UIC2 [30] was kindly provided by Dr. E. Mechetner (Chemicon Inc, Temecula, CA). For determination of P-gp expression, the mAb MM4.17, recognizing an extracellular P-gp epitope on intact/living human MDR cells, was also used. Both UIC2 and MM4.17 mAbs were used in a highly purified form.

[2] = system: HTLVIIIB laboratory strain of HIV-1 virus; assay: Anti-HIV activity in HIV-infected H9 cells (p24 antigen ELISA); format: cell-based; details: HIV infected H9 cell line, 3 days, 50% Effective Concentration
Experimental: (§2) Anti-HIV activity was measured in the human T lymphoid H9 cells. To this purpose, cells were cultured in RPMI 1640, supplemented with 2 mM L-glutamine, penicillin, streptomycin and 10% fetal bovine serum (FBS), and infected with the HTLVIIIB laboratory strain of HIV-1 virus (100000 TCID50 – Tissue Culture Infective Dose- per 10^6 […]). After two hours of incubation, cells were washed with medium, and cultured at 37°C (5000 cells/well in 96-well microplates) for 3 days in presence of medium and test compounds at concentrations ranging from 50 μM to 0.1 μM. After 3 days p24 antigen concentration in the supernatants was measured by an ELISA assay (Innotest HIV antigen mAb, Innogenetics NV Belgium). Cell viability was determined by the trypan blue exclusion method.
(§3) The 50% inhibitory drug concentration (IC50) and the 50% cytotoxic drug concentration (CC50) were calculated by the median effect equation using Calcusyn Version 2.0 program (Biosoft Cambridge)

[3] = Cytotoxicity in HIV infected H9 cell line (trypan blue exclusion); format: cell-based, human; details: human, HIV-1 (HTLVIIIB) infected H9 T lymphoid cells, 50% Cytotoxic Concentration
Experimental: as §2, §3

HIV-1 Integrase (IN) = target: HIV-1 Integrase (IN); parameters: method as in PMID 16539381; details: HIV-1 integration strand transfer step; 50% Inhibitory Concentration; cited from earlier work
[4] = target: T1, MDR1-P-glycoprotein (P-gp) (Homo sapiens, UniProt P08183); assay: Doxorubicin efflux/retention in KB-V1 MDR cells (confocal microscopy); details: 25 μg/ml, 5 μg/ml doxorubicin, 1 and 3 hrs of extrusion
T1 sequence (P08183 whole entry): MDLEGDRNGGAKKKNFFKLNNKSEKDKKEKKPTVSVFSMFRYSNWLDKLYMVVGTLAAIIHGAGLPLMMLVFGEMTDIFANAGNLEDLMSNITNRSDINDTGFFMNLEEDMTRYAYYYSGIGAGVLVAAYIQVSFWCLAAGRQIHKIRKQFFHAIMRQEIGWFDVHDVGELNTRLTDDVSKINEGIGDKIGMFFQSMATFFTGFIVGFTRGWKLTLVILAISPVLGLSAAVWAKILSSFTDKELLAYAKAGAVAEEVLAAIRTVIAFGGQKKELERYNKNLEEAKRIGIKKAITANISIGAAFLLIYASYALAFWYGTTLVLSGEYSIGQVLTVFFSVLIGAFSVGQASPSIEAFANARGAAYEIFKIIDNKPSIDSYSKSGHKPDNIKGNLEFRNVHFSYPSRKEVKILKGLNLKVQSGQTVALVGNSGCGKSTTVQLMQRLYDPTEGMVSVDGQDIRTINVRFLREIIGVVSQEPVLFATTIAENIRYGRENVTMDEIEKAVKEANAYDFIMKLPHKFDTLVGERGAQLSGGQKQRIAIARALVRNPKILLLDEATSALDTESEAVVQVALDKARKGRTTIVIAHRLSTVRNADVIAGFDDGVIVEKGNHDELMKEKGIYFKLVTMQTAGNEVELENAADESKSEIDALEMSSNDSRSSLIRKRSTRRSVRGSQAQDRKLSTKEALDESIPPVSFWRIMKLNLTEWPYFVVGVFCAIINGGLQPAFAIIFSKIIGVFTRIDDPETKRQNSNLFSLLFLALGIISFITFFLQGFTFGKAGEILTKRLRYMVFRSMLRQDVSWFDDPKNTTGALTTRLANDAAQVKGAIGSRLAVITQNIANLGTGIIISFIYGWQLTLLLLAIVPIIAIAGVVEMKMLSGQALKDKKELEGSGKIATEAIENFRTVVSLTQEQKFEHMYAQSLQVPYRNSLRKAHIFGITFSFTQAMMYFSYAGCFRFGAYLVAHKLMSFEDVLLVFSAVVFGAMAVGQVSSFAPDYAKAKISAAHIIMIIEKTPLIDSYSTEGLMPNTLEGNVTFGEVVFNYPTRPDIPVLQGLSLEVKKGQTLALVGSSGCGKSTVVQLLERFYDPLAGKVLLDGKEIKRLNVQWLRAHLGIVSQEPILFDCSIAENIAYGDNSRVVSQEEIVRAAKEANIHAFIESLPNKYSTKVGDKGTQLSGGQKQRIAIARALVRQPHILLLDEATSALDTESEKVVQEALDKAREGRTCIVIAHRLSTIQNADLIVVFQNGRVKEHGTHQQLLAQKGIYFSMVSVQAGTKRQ

[5] = system: P-gp expression in CEM cells; assay: Induction of P-gp expression in parental drug sensitive CEM cells (flow cytometry); format: cell-based, human; details: 25 μg/ml, 28 days of culture
Text: Similarly to some of the isozymes involved in drug metabolism, the expression of P-gp is inducible. It is therefore important to assess whether P-gp induction occurs upon exposure to IINs, with potential implications for drug metabolism. To this aim, we investigated whether the treatment with the IINs RDS 1974, RDS 1983, RDS 1984 and RDS 1996, all having different biological and physicochemical properties (Table 1), modulate P-gp expression in the human CD4+ CEM cell system. The parental drug sensitive CEM cell line and the revertant of its derivative CEM-VBL10 MDR cell variant (CEMrev), expressing very low or undetectable amount of P-gp, were cultured in the presence of the indicated IINs (10 μg/ml for RDS 1974 and RDS 1996; 25 μg/ml for RDS 1983 and RDS 1984) for 28 days (RDS 1983, RDS 1984 and RDS 1996) or 104 days (RDS 1974). As a control for P-gp modulation, CEMrev cells were exposed to VBL, shown to increase P-gp expression.
The multidrug resistant (MDR) variants CEM-VBL10 and CEM-VBL100 cells were isolated by stepwise selection of the parental drug sensitive CCRF-CEM (CEM) in the presence of increasing concentrations of VBL [31, 32]. Cells were grown under standard conditions for mammalian cells cultured in suspension. […]

[6] = target: T1, MDR1-P-glycoprotein (P-gp); assay: MDR efflux assay: doxorubicin efflux inhibition in CEM-VBL100 cells (flow cytometry); format: cell-based; parameters: CEM-VBL10 and CEM-VBL100 cells were isolated by stepwise selection of the parental drug sensitive CCRF-CEM (CEM) in the presence of increasing concentrations of VBL; endogenous in cells; host or cells: CEM-VBL10 (UIC2 shift assay) and CEM-VBL100 (doxorubicin efflux assay), MDR variants of CCRF-CEM; key to Doxorubicin efflux inhibition (B): the + or ++ symbols indicate arbitrary units in measuring and differentiating the level of UIC2 epitope modulation and doxorubicin retention; the + or ++ symbols indicate arbitrary units in measuring and differentiating the level of UIC2 epitope modulation and doxorubicin retention; details: for Doxorubicin efflux inhibition (B): CEM-VBL100 cells
Experimental: […] The cells were incubated with doxorubicin (10 μg/ml) only or drug diluent in parallel cultures. At the end of incubation, the cells were washed in serum-free medium and resuspended in BM in the presence of the IINs or Verapamil (drug diluent was added in control samples) for a further 1 h at 37°C. Finally, cells were washed twice with ice-cold PBS/FACS, and analyzed in a flow cytometer (FACScan, Becton Dickinson, San Josè, CA).

[7] = target: T1, MDR1-P-glycoprotein (P-gp); assay: UIC2 shift assay (P-gp functional conformation) in CEM-VBL10 cells; format: cell-based; parameters: CEM-VBL10 and CEM-VBL100 cells were isolated by stepwise selection of the parental drug sensitive CCRF-CEM (CEM) in the presence of increasing concentrations of VBL; endogenous in cells; host or cells: CEM-VBL10 (UIC2 shift assay) and CEM-VBL100 (doxorubicin efflux assay), MDR variants of CCRF-CEM; key to UIC2 epitope up-modulation (A): the + or ++ symbols indicate arbitrary units in measuring and differentiating the level of UIC2 epitope modulation and doxorubicin retention; the + or ++ symbols indicate arbitrary units in measuring and differentiating the level of UIC2 epitope modulation and doxorubicin retention; details: for mAb UIC2 reactivity: 37°C (Fig 1)
Experimental: as §1
The UIC2 shift assay was performed under physiological conditions as previously described. CEM-VBL10 cells (1 × 10^6) were resuspended in 1 ml of PBS containing 2% FCS and allowed to equilibrate at 37°C in a water bath for 10 min. The various IINs were added to samples (final concentrations 100 or 50 μg/ml) and incubated for additional 15 min at 37°C with purified UIC2 mAb (final concentration 12.5 μg/ml). VBL (10 μg/ml), which is a well known UIC2 shifting agent, and the drug diluents were used as positive and negative controls, respectively. Cells were then washed twice in ice-cold PBS containing 2% FCS with 0.01 % sodium azide (Shift Stop Buffer, SSB), stained on ice in SSB for additional 15 min with 5 μg/ml of fluorescein -conjugated goat-antimouse antibody (FITC-GAM, Cappel, West Chester, Pa, USA), washed twice with ice cold PBS/FACS and maintained in ice until flow cytometry analysis. The UIC2 shift is the difference between UIC2 binding in the presence versus the absence of the IINs under physiological conditions (37°C).

H9 cells = assay: Cytotoxicity in HIV infected H9 cell line (trypan blue exclusion); format: cell-based, human; details: 50% Cytotoxic Concentration
Experimental: as §2, §3

For `O=C(O)/C(O)=C/C(=O)c1cn(Cc2c(F)cccc2F)c2ccccc2c1=O` [RDS 1984], the “% of P-gp expressing cells” value ([1]; 25 μg/ml, 28 days of culture) was 15–18%, the EC50 ([2]; Human immunodeficiency virus 1, 72 h) was 9.64 µM and the CC50 at 3 days [3] was greater than 50 µM. For the same compound, the IC50 (HIV-1 Integrase (IN)) was 0.019 µM, the doxorubicin retention [4] was “doxorubicin was retained” and the “% of P-gp expressing cells” value [5] was 0%. The “intracellular accumulation of doxorubicin” value ([6]; CEM-VBL100 MDR cells, 1 μg/ml to 100 μg/ml (Fig 2)) was “intracellular accumulation of doxorubicin with a dose dependent effect” and the “mAb UIC2 reactivity” value ([7]; 50 μg/ml) was “increased”.
For `O=C(O)C(=O)/C=C(\O)c1ccc2c(c1)c(=O)c(/C(O)=C/C(=O)C(=O)O)cn2Cc1ccc(F)cc1` [RDS 1997], the EC50 [2] was 2.44 µM, the CC50 (H9 cells) was greater than 50 µM and the “Doxorubicin efflux inhibition (B)” value ([6]; 25 μg/ml) was “+”. For the same compound, the “Doxorubicin efflux inhibition (B)” value ([6]; 50 μg/ml) was “++”, the “UIC2 epitope up-modulation (A)” value ([7]; 50 μg/ml) was “+” and the “UIC2 epitope up-modulation (A)” value ([7]; 100 μg/ml) was “++”.
In the case of `CC[C@]1(O)C[C@@H]2CN(CCc3c([nH]c4ccccc34)[C@@](C(=O)OC)(c3cc4c(cc3OC)N(C)[C@H]3[C@@](O)(C(=O)OC)[C@H](OC(C)=O)[C@]5(CC)C=CCN6CC[C@]43[C@@H]65)C2)C1` [Vinblastine], the “P-gp expression (in words)” value ([1]; CEMrev cell line, compared with the drug diluent control) is reported as “strong induction of P-gp expression”, the “% of P-gp expressing cells” value ([1]; 10 μg/ml, 28 days of culture) is reported as 30–35% and the “% of P-gp expressing cells” value ([1]; 10 μg/ml, 104 days of culture) is reported as 60–70%. For the same compound, the “mAb UIC2 reactivity” value ([7]; 10 μg/ml) was “increased”.
